# Laboratory results reported in patent US9289446B2, “Myocardial perfusion imaging methods and compositions” (GILEAD SCIENCES, INC., priority 2002, dated 2016).
# How the values were obtained:
# [1] = Example 3: pharmacokinetic profile of CVT-3146 in healthy volunteers after single IV bolus (three-compartment model); format: in vivo; details: male, human, plasma, Total (doses 1-30 μg/kg), N=22, mean, read-out: VSS (volume of distribution at steady state)
# Protocol: This Example is a study performed to evaluate (1) the maximum tolerated dose of CVT-3146 and (2) the pharmacokinetic profile of CVT-3146 in healthy volunteers, after a single IV bolus dose.
# The study was performed using thirty-six healthy, non-smoking male subjects between the ages of 18 and 59 and within 15% of ideal body weight.
# CVT-3146 was administered as an IV bolus (20, seconds) in ascending doses of […], 10, 20, and 30 μg/kg.
# Pharmacokinetics: • Plasma samples were drawn during supine phase (Days 1 and 2) at 0, 1, 2, 3, 4, 5, 7, 10, 15, 20, 30, 45 minutes after dosing and at 1, 1.5, 2, 4, 6, 8, 12 and 24 hours after dosing. Urine was collected for 24 hours for CVT-3146 excretion.
# A three-compartment open model was fit to the data using observed Tmax (1-4 minutes) as the duration of a zero-order infusion. Reliable parameter estimates were obtained for dose of 1-30 μg/kg. Parameters are summarized in the following (Table 2): […]
# [2] = tested on: coronary blood flow velocity; test: Example 2: dose-ranging study of CVT-3146 IV bolus as coronary vasodilator (coronary flow velocity, heart rate, blood pressure, adverse events); format: in vivo, human
# Text: This example is a study performed to determine the range of dosages over which the selective A2A receptor agonist, CVT-3146 can be administered and be effective as a coronary vasodilator.
# The study included patients undergoing a clinically indicated coronary catheterization with no more than a 70% stenosis in any coronary artery and no more than a 50% stenosis of the study vessel had CBFv determined by Doppler flow wire. Study subject were selected after measuring baseline and peak CBFv after an intracoronary (IC) injection of 18 μg of Ado. 36 subjects were identified as meeting the study criteria of having a peak to baseline CBFv ration of ≧2.5 in response to Adenosine,
# CVT-3146 was administered to the study subjects by IV bolus in less that 10 seconds in amounts ranging from 10 μg to 500 μg.
# The effectiveness of both compounds was measured by monitoring coronary flow velocity. Other coronary parameters that were monitored included heart rate and blood pressure. These parameters were measured in order to evaluate the time to peak dose response, the magnitude of the dose response and the duration of the dose response. Adverse events were also monitored. Coronary blood flow velocity was measured at the left anterior descending coronary artery (LAD) or left circumflex coronary artery (LCx). The velocity measurements were taken by following standard heart catheterization techniques and inserting a 0.014 inch Doppler-tipped Flowire into the LAD or LCx vessel and thereafter monitoring blood flow velocity. In addition, hemodynamic and electrocardiographic measurements were recorded continuously.
# Overall, 36 human subjects (n=36) were evaluated. Of the 36, 18 were female and 18 were male. Their mean age was 53.4 and they ranged from 24-72 years in age. Of the 36 subjects evaluated, the LAD vessel of 31 subjects was monitored, and the LCx vessel of 5 subjects was monitored. The following doses (μg) of CVT-3146 were given to the subjects in a single iv bolus: 10 (n=4); 30 (n=6); 100 (n=4); 300 (n=7); 400 (n=9); 500 (n=6).
# [3] = Example 7: adverse effects and hemodynamic effects of CVT-3146 as pharmacologic stress agent in MPI protocol; format: in vivo, human
# Text: CVT-3146 is a selective A2A adenosine receptor agonist that produces coronary hyperemia and potentially less adverse effects due to its limited stimulation of receptor subtypes not involved with coronary vasodilation. This study evaluated the effectiveness of CVT-3146 as a pharmacologic stress agent.
# 36 subjects (27 men, 9 women; 67±10 years) were studied with two doses of CVT-3146 [400 mcg (n=18), 500 mcg (n=18)], administered as an IV bolus, as part of a pharmacologic stress myocardial perfusion imaging protocol.
# [4] = tested on: blood flow in coronary, mesenteric, hind limb and renal vascular beds; test: Example 8: vasodilator effects in different vascular beds (CBF, MBF, LBF, RBF) in awake dogs; format: in vivo; details: n=6, FIG. 18
# Protocol: Example 8 employed a pharmaceutical composition consisting of an aqueous composition of 100 micrograms/mL CVT-3146 in 15% (w:v) propylene glycol and 100 mM phosphate buffer at pH 7 with 0.1% EDTA. The formulation was stored in type I glass vials at 5 mL per vial.
# In this study the vasodilator effects of CVT-3146 were compared to those of ADO in different vascular beds in awake dogs. Dogs were chronically instrumented for measurements of the blood flow in coronary (CBF), mesenteric (MBF), hind limb (LBF), and renal (RBF) vascular beds, and hemodynamics.
# [5] = tested on: myocardial ischemia detection (SPECT MPI); test: Example 6: stress/rest SPECT myocardial perfusion imaging, CVT-3146 versus adenosine; format: in vivo, human; details: 400 mcg vs 500 mcg
# Text: Pharmacologic stress SPECT myocardial perfusion imaging (MPI) with adenosine (A) is a well-accepted technique, with excellent diagnostic and prognostic value and proven safety. However, side effects are common and AV nodal block and severe flushing are poorly tolerated. Agents such as CVT-3146 selectively act upon the A2A adenosine receptor and avoid stimulation of other receptor subtypes which may prevent such adverse reactions.
# To determine the ability of CVT-3146 to produce coronary hyperemia and accurately detect CAD, 35 subjects (26 men, 9 women; 67±10 years) underwent both A and CVT-3146 stress/rest MPI, with 10.0±9.1 days between studies. […] CVT-3146 [400 mcg (n=18), 500 mcg (n=17)] was administered as an IV bolus immediately followed by a saline flush, and then a Tc-99m radiopharmaceutical [sestamibi (n=34), tetrofosmin (n=1)]. SPECT images were uniformly processed, intermixed with control studies (normal and fixed-only defects), and interpreted by three observers in a blinded fashion using a 17-segment model. Quantitative analysis was also performed using 4D MSPECT. In addition to three separate readings, a consensus interpretation was performed and then a direct, same-screen comparison of A and CVT-3146 images undertaken to determine relative differences, using 5 regions per study.
# [6] = 36 subjects, 400 or 500 mcg IV bolus
smiles,measurement,setting,value
"CNC(=O)c1cnn(-c2nc(N)c3ncn([C@@H]4O[C@H](CO)[C@@H](O)[C@H]4O)c3n2)c1 [CVT-3146, (1-{9-[(4S,2R,3R,5R)-3,4-dihydroxy-5-(hydroxymethyl)oxolan-2-yl]-6-aminopurin-2-yl}pyrazol-4-yl)-N-methylcarboxamide]",Vd,[1],75.5 L
same,time of maximum decrease in diastolic BP after dosing,[2]; 400 μg IV bolus,about 1 minute
same,time of maximum decrease in systolic BP after dosing,[2]; 400 μg IV bolus,about 1 minute
same,time of maximum increase in heart rate after dosing,[2]; 400 μg IV bolus,about 1 minute
same,peak effects compared with adenosine,[2]; doses above about 100 μg,equivalent to 18 μg adenosine administered IC
same,incidence of adverse effects (AE),[3]; [6],72%
same,patients with adverse effects (AE),[3]; [6],26 pts
same,tolerability,[3]; 400 and 500 mcg IV bolus,well-tolerated and has acceptable hemodynamic effects
same,"Diastolic BP, peak Absolute Change","[3]; 400 and 500 mcg, mean±S.D.",−5.4 ± 7.2 mmHg
same,"Diastolic BP, peak Relative Change","[3]; 400 and 500 mcg, mean±S.D.",−7.9% ± 10.5%
same,"Heart Rate, peak Absolute Change","[3]; 400 and 500 mcg, mean±S.D.",+21.9 ± 10.4 beats per min
same,"Heart Rate, peak Relative Change","[3]; 400 and 500 mcg, mean±S.D.",+36.7% + 21.0%
same,"Systolic BP, peak Absolute Change","[3]; 400 and 500 mcg, mean±S.D.",−5.9 ± 10.7 mmHg
same,"Systolic BP, peak Relative Change","[3]; 400 and 500 mcg, mean±S.D.",−4.1% ± 7.6%
same,serious AE,[3]; both doses,"One serious AE occurred, with exacerbation of a migraine headache"
same,share of AEs mild to moderate,[3]; both doses,96%
same,share of AEs resolved within 15 min without treatment,[3]; both doses,91%
same,"time of peak hemodynamic effect, heart rate (HR)",[3]; both doses,≤ 0.033 h
same,"time of peak hemodynamic effect, systolic blood pressure (BP)",[3]; both doses,4 min
same,deviation of BP from baseline,[3]; thirty min after CVT-3146,< 2%
same,increase in hind limb blood flow (LBF) compared to ADO,[4],smaller increase in LBF than ADO
same,dose-dependent effect on ischemia detection,[5],No dose-dependent effect
